Results from ChEMBL document CHEMBL2390902, “Discovery of 1-(1,3,5-triazin-2-yl)piperidine-4-carboxamides as inhibitors of soluble epoxide hydrolase” (Bioorg Med Chem Lett, 2013).

Tests used:
Cytochrome P450 2C9 = Cytochrome P450 2C9 (Homo sapiens, UniProt P11712)
Description: Inhibition of CYP2C9 (unknown origin)

[1] = target: T1, Bifunctional epoxide hydrolase 2 (Homo sapiens, UniProt P34913)
T1 sequence (P34913 whole entry): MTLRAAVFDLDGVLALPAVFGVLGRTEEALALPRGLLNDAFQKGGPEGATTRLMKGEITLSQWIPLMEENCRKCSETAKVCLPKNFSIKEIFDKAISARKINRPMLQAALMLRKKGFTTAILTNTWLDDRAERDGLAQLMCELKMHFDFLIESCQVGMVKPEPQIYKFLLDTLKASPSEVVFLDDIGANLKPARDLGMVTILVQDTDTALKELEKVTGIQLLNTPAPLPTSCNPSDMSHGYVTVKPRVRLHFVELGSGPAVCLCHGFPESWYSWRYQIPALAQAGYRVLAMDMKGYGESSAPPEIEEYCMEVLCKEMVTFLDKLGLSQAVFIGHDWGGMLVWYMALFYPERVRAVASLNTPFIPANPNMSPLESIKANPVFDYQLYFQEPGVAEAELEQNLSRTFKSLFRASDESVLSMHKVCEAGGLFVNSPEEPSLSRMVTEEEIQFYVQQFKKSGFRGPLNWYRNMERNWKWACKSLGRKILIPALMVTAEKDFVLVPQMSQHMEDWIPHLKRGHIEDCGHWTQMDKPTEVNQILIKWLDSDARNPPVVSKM
Description: Inhibition of human soluble epoxide hydrolase using PHOME as substrate assessed as formation of 6-methoxy-2-naphthaldehyde incubated for 10 mins prior to substrate addition measured with in 30 mins by fluorescence assay

[2] = Fraction unbound in rat plasma; format: ADME, cell-free
[3] = Plasma clearance in rat at 1 mg/kg, iv; format: ADME, organism-based; parameters: dose 1 mg/kg, route intravenous
[4] = target: T1, Bifunctional epoxide hydrolase 2; remark: listed apart in the source
Description: Inhibition of human soluble epoxide hydrolase overexpressed in HEK293F cells using EET as substrate assessed as formation of DHET incubated for 30 mins prior to substrate addition measured after 60 mins by ELISA

Cytochrome P450 2C9, sequence (P11712 whole entry): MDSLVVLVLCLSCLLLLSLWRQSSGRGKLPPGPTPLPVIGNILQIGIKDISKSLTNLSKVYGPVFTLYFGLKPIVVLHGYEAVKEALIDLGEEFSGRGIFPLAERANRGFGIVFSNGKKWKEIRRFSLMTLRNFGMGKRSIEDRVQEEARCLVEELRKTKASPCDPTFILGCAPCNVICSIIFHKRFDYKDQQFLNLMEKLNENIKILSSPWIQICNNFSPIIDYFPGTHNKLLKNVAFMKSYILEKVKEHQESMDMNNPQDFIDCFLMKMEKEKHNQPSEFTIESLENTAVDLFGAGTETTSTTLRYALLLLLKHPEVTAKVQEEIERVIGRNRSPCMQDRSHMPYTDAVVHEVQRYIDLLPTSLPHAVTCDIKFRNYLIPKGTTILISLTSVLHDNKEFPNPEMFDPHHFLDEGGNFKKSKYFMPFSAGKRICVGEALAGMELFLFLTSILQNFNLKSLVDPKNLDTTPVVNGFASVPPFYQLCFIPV

Question: What does the source list for `CNc1nc(-c2ccccc2)nc(N2CCC(C(=O)NCc3ccccc3C(F)(F)F)CC2)n1`?
Answer: IC50 (Cytochrome P450 2C9): 1800 nM; IC50 [1]: 1 nM; fraction unbound [2]: 0.015; clearance [3]: 3 mL/min/kg; IC50 [4]: 63 nM

Question: Which results are given for `CNc1cc(C)cc(N2CCC(C(=O)NCc3ccccc3C(F)(F)F)CC2)c1`?
Answer: IC50 (Cytochrome P450 2C9): 2000 nM; IC50 [1]: 32 nM

Question: With `CNc1nc(C2CCCCC2)nc(N2CCC(C(=O)NCc3ccccc3C(F)(F)F)CC2)n1` as the molecule, how does the IC50 (Cytochrome P450 2C9) read?
Answer: 63 nM

Question: And the IC50 [1]?
Answer: 1 nM

Question: For `CNc1nc(C)nc(N2CCC(C(=O)NCc3ccccc3C)CC2)n1`, which IC50 (Cytochrome P450 2C9) is on record?
Answer: > 25000 nM

Question: What about the IC50 [1] of the same molecule?
Answer: 200 nM

Question: For `CNc1nc(NC)nc(N2CCC(C(=O)NCc3ccccc3C(F)(F)F)CC2)n1`, which IC50 (Cytochrome P450 2C9) is on record?
Answer: 25000 nM

Question: And the IC50 [1]?
Answer: 20 nM

Question: And the clearance [3]?
Answer: 79 mL/min/kg

Question: What about the IC50 [4] of the same molecule?
Answer: 100 nM

Question: With `CNc1nc(C)nc(N2CCC(C(=O)NCc3ccc(OC(F)(F)F)cc3)CC2)n1` as the molecule, how does the IC50 (Cytochrome P450 2C9) read?
Answer: > 25000 nM

Question: And the IC50 [1]?
Answer: 400 nM

Question: Which IC50 (Cytochrome P450 2C9) does the source give for `CNc1nc(C)cc(N2CCC(C(=O)NCc3ccccc3C(F)(F)F)CC2)n1` here?
Answer: > 25000 nM

Question: What about the IC50 [1] of the same molecule?
Answer: 40 nM

Question: Which IC50 (Cytochrome P450 2C9) does the source give for `CNc1nc(C)nc(N2CCC(C(=O)NCc3ccccc3OC(F)(F)F)CC2)n1` here?
Answer: > 25000 nM

Question: And the IC50 [1]?
Answer: 1 nM

Question: What about the clearance [3] of the same molecule?
Answer: 44 mL/min/kg

Question: And the IC50 [4]?
Answer: 3 nM

Question: For `COCCNc1nc(C)nc(N2CCC(C(=O)NCc3ccccc3C(F)(F)F)CC2)n1`, which IC50 (Cytochrome P450 2C9) is on record?
Answer: 1800 nM

Question: And the IC50 [1]?
Answer: 1 nM

Question: What about the clearance [3] of the same molecule?
Answer: 27 mL/min/kg

Question: And the IC50 [4]?
Answer: 1 nM

Question: Which IC50 (Cytochrome P450 2C9) does the source give for `CNc1nc(C)nc(N2CCC(C(=O)NCc3ccccc3OC)CC2)n1` here?
Answer: > 25000 nM

Question: What about the IC50 [1] of the same molecule?
Answer: 1600 nM

Question: Which IC50 (Cytochrome P450 2C9) does the source give for `Cc1nc(NC(C)C)nc(N2CCC(C(=O)NCc3ccccc3C(F)(F)F)CC2)n1` here?
Answer: 400 nM

Question: And the IC50 [1]?
Answer: 1 nM

Question: What about the IC50 [4] of the same molecule?
Answer: 10 nM

Question: For `CNc1nc(C)nc(N2CCC(C(=O)NCc3ccccc3C(F)(F)F)CC2)n1`, which IC50 (Cytochrome P450 2C9) is on record?
Answer: 25000 nM

Question: And the IC50 [1]?
Answer: 3 nM

Question: And the clearance [3]?
Answer: 51 mL/min/kg

Question: And the IC50 [4]?
Answer: 100 nM

Question: With `CCc1nc(NC)nc(N2CCC(C(=O)NCc3ccccc3C(F)(F)F)CC2)n1` as the molecule, how does the IC50 (Cytochrome P450 2C9) read?
Answer: 9600 nM

Question: And the IC50 [1]?
Answer: 4 nM

Question: What about the IC50 [4] of the same molecule?
Answer: 80 nM

Question: What does the source list for `CNc1cc(C)nc(N2CCC(C(=O)NCc3ccccc3C(F)(F)F)CC2)c1`?
Answer: IC50 (Cytochrome P450 2C9): > 25000 nM; IC50 [1]: 1590 nM

Question: What does the source list for `CNc1nc(C)nc(N2CCC(C(=O)NCc3ccc(OC)cc3C(F)(F)F)CC2)n1`?
Answer: IC50 (Cytochrome P450 2C9): > 25000 nM; IC50 [1]: 1 nM; clearance [3]: 7 mL/min/kg; IC50 [4]: 2 nM

Question: With `CNc1nc(C)nc(N2CCC(C(=O)NCc3ccccc3)CC2)n1` as the molecule, how does the IC50 (Cytochrome P450 2C9) read?
Answer: > 25000 nM

Question: And the IC50 [1]?
Answer: 200 nM

Question: Which IC50 (Cytochrome P450 2C9) does the source give for `CNc1nc(C)nc(N2CCC(C(=O)NCc3ccccc3C#N)CC2)n1` here?
Answer: > 25000 nM

Question: What about the IC50 [1] of the same molecule?
Answer: 80 nM

Question: Which clearance [3] does the source give for `CNc1nc(N2CCC(C(=O)NCc3ccccc3C(F)(F)F)CC2)nc(N2CCN(C)CC2)n1` here?
Answer: 46 mL/min/kg

Question: For `CNc1nc(N(C)CCN(C)C)nc(N2CCC(C(=O)NCc3ccccc3C(F)(F)F)CC2)n1`, which IC50 (Cytochrome P450 2C9) is on record?
Answer: 17000 nM

Question: What about the IC50 [1] of the same molecule?
Answer: 80 nM

Question: And the clearance [3]?
Answer: 140 mL/min/kg

Question: With `CNc1cc(N2CCC(C(=O)NCc3ccccc3C(F)(F)F)CC2)cc(C)n1` as the molecule, how does the IC50 (Cytochrome P450 2C9) read?
Answer: > 25000 nM

Question: And the IC50 [1]?
Answer: 126 nM

Question: With `CNc1nc(C)nc(N2CCC(C(=O)NCc3ccc(F)cc3C(F)(F)F)CC2)n1` as the molecule, how does the IC50 (Cytochrome P450 2C9) read?
Answer: > 25000 nM

Question: What about the IC50 [1] of the same molecule?
Answer: 3 nM

Question: And the IC50 [4]?
Answer: 50 nM

Question: For `CNc1cc(C)nc(N2CCC(C(=O)NCc3ccccc3C(F)(F)F)CC2)n1`, which IC50 (Cytochrome P450 2C9) is on record?
Answer: > 25000 nM

Question: And the IC50 [1]?
Answer: 160 nM

Question: With `CNc1nc(C)nc(N2CCC(C(=O)NCc3cccc(OC(F)(F)F)c3)CC2)n1` as the molecule, how does the IC50 (Cytochrome P450 2C9) read?
Answer: > 25000 nM

Question: And the IC50 [1]?
Answer: 630 nM

Question: With `CNc1cc(C)cc(N2CCC(C(=O)NCc3ccccc3C(F)(F)F)CC2)n1` as the molecule, how does the IC50 (Cytochrome P450 2C9) read?
Answer: 11000 nM

Question: What about the IC50 [1] of the same molecule?
Answer: 10 nM

Question: What about the clearance [3] of the same molecule?
Answer: 61 mL/min/kg

Question: What about the IC50 [4] of the same molecule?
Answer: 100 nM

Question: Which IC50 (Cytochrome P450 2C9) does the source give for `CNc1cc(N2CCC(C(=O)NCc3ccccc3C(F)(F)F)CC2)nc(C)n1` here?
Answer: 1000 nM

Question: What about the IC50 [1] of the same molecule?
Answer: 5 nM

Question: And the clearance [3]?
Answer: 73 mL/min/kg

Question: What about the IC50 [4] of the same molecule?
Answer: 80 nM

Question: What does the source list for `Cc1nc(N2CCOCC2)nc(N2CCC(C(=O)NCc3ccccc3C(F)(F)F)CC2)n1`?
Answer: IC50 (Cytochrome P450 2C9): 400 nM; IC50 [1]: 1 nM; IC50 [4]: 3 nM
